Results as given in publication PMC6514978, “Synthesis, Antibacterial Activities, Mode of Action and Acute Toxicity Studies of New Oxazolidinone-Fluoroquinolone Hybrids” (Molecules, 2019).
Converted amounts (≈) assume the structure as drawn.

Experiments:
[1] = test system: S. suis (9) clinical isolates; assay: Susceptibility of clinical isolates (MIC); type: cell-based, Streptococcus suis; conditions: for Cumulative % of strains inhibited at MIC / No. of strains inhibited at MIC: S. suis (9); for MIC50 / MIC90 / MIC: Streptococcus suis, S. suis, 9 clinical isolates; for MIC50: read-out: MIC50; for MIC90: read-out: MIC90; for MIC: read-out: MIC Range
Method: (§1) Susceptibility testing of oxazolidinone-fluoroquinolone hybrids against various bacteria was performed by the broth microdilution method as outlined by the Clinical and Laboratory Standards Institute (CLSI). Three types of media, including cation-adjusted Mueller Hinton broth, Haemophilus Test Medium and cation-adjusted Mueller Hinton broth that contained 3%–5% lysed horse blood, were used to culture the corresponding bacteria. […] A final inoculum of 5 × 10^5 CFU/mL was used and plates were read after incubation for 16–24 h at 35 °C. […] Standard quality control strains (ATCC) were included throughout. Each determination was repeated in triplicate.

[2] = test system: VAN and quinolone-resistant S. pneumoniae; assay: MIC against drug-resistant strain; type: cell-based; conditions: Streptococcus pneumoniae; S. pneumoniae, VAN and quinolone-resistant; read-out: MIC
Method in brief: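 Triplicate MIC determinations by CLSI broth microdilution, with ATCC quality control strains alongside. Growth medium depended on the species: cation-adjusted MHB, with or without 3%–5% lysed horse blood, or Haemophilus Test Medium. Final inoculum 5 × 10^5 CFU/mL; read at 16–24 h, 35 °C.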

VRE (13B330) = assay: MIC, broth microdilution (CLSI), clinical isolate; type: cell-based, vancomycin-resistant enterococcus; conditions: Enterococcus
Description: 6 standard strains and 3 clinical isolates were used to the preliminary evaluation of in vitro antibacterial activities of oxazolidinone-fluoroquinolone hybrids. For the further evaluation of hybrids OBP-4 and OBP-5, 263 clinical isolates including S. aureus (46), S. haemolyticus(32), S. epidermidis (10), E. faecalis (72), E. faecium (47), S. pneumoniae (13), H. parasuis (34), S. suis (9), and 8 resistant strains including MRSA, MRSE, CIP-resistant S. aureus and S. haemolyticus, VAN and quinolone-resistant S. pneumoniae, LZD-resistant E. faecalis, LZD/VAN and quinolone-resistant E. faecium were collected and tested.
Susceptibility testing of oxazolidinone-fluoroquinolone hybrids against various bacteria was performed by the broth microdilution method as outlined by the Clinical and Laboratory Standards Institute (CLSI). Three types of media, including cation-adjusted Mueller Hinton broth, Haemophilus Test Medium and cation-adjusted Mueller Hinton broth that contained 3%–5% lysed horse blood, were used to culture the corresponding bacteria. All compounds including comparator drugs were dissolved in an appropriate solvent at a concentration of 2.048 mg/mL and then serially diluted two-fold to provide the required concentrations. A final inoculum of 5 × 10^5 CFU/mL was used and plates were read after incubation for 16–24 h at 35 °C. […] Standard quality control strains (ATCC) were included throughout. Each determination was repeated in triplicate.

[3] = test system: protein synthesis (E. coli extract-based cell-free protein expression system); assay: In vitro transcription/translation assay (S30 T7 cell-free system, Renilla luciferase); type: biochemical; conditions: for IC50: E. coli S30 T7 cell-free transcription/translation, 1 h, 37 °C, read-out: IC50 Inhib. of Protein Synthesis
Method: The influence of hybrids OBP-4 and OBP-5 against protein synthesis was confirmed by the S30 T7 High-Yield Protein Expression System (Promega Co., Ltd.). The S30 T7 High-Yield Protein Expression System is an E. coli extract-based cell-free protein expression system, which can effectively transcribe and translate DNA fragments with a T7 promoter. The reaction system containing 1 μg plasmid DNA, 20 μL S30 Premix Plus and 18 μL T7 S30 Extract with or without compounds was incubated for 1 h at 37 °C with a rotational speed of 250 rpm, and terminated by cooling in ice for 5 min in a 96-well white multi-well plate. Then, 1.25 μL of the translation reaction mixture was added to 48.75 μL of Renilla Luciferase Assay Lysis Buffer, and mixed with 50 μL of Renilla Luciferase Assay Reagent (cat no. E2810; Promega). Renilla luciferase activity was measured on EnSpire® Multimode Plate Reader (PerkinElmer, Waltham, MA, USA). […] LZD was used as a positive control.

[4] = test system: S. haemolyticus (32) clinical isolates; assay: Susceptibility of clinical isolates (MIC); type: cell-based, Staphylococcus haemolyticus; conditions: for Cumulative % of strains inhibited at MIC / No. of strains inhibited at MIC: S. haemolyticus (32); for MIC50 / MIC90 / MIC: Staphylococcus haemolyticus, S. haemolyticus, 32 clinical isolates; for MIC50: read-out: MIC50; for MIC90: read-out: MIC90; for MIC: read-out: MIC Range
Method: as §1

E. coli DNA gyrase = target: T1, E. coli DNA gyrase (Escherichia coli, UniProt P0AES4+P0AES6); assay: DNA gyrase supercoiling assay; type: biochemical; conditions: supercoiling of relaxed pBR322, 37 °C, 30 min
T1 construct: purchased Inspiralis Co., Ltd; host or cells: E. coli
Method: The E. coli DNA Gyrase Supercoiling Assay Kit (Inspiralis Co., Ltd.) was used to investigate the inhibition activities of hybrids OBP-4 and OBP-5 against DNA gyrase. DNA gyrase is prepared from E. coli. One unit of DNA gyrase can convert 0.5 μg of relaxed pBR322 to the supercoiled forms in 30 min. […] The reaction was terminated by adding 30 μL of STEB and 30 μL of chloroform/isoamyl alcohol (v:v, 24:1), and then the products were resolved by gel electrophoresis on 1% (w/v) agarose gel at 80 V for 2 h in the absence of ethidium bromide. The gels were stained with ethidium bromide (1 μg/mL in distilled water) for 15 min, and destained (5–10 min) in distilled water. DNA bands were visualized with UV light in Bio-Rad® Chemidoc xrs and analyzed by using Quantity One software (Version 4.6, Bio-Rad).

[5] = test system: S. epidermidis (10) clinical isolates; assay: Susceptibility of clinical isolates (MIC); type: cell-based, Staphylococcus epidermidis; conditions: for Cumulative % of strains inhibited at MIC / No. of strains inhibited at MIC: S. epidermidis (10); for MIC50 / MIC90 / MIC: Staphylococcus epidermidis, S. epidermidis, 10 clinical isolates; for MIC50: read-out: MIC50; for MIC90: read-out: MIC90; for MIC: read-out: MIC Range
Method: as §1

MRSE = assay: MIC against drug-resistant strain; type: cell-based, S. epidermidis; conditions: Staphylococcus epidermidis, read-out: MIC
Method: 6 standard strains and 3 clinical isolates were used to the preliminary evaluation of in vitro antibacterial activities of oxazolidinone-fluoroquinolone hybrids.
as §1

[6] = S. haemolyticus clinical isolates, CLSI criteria

T1 sequence (P0AES4 whole entry, one chain of several): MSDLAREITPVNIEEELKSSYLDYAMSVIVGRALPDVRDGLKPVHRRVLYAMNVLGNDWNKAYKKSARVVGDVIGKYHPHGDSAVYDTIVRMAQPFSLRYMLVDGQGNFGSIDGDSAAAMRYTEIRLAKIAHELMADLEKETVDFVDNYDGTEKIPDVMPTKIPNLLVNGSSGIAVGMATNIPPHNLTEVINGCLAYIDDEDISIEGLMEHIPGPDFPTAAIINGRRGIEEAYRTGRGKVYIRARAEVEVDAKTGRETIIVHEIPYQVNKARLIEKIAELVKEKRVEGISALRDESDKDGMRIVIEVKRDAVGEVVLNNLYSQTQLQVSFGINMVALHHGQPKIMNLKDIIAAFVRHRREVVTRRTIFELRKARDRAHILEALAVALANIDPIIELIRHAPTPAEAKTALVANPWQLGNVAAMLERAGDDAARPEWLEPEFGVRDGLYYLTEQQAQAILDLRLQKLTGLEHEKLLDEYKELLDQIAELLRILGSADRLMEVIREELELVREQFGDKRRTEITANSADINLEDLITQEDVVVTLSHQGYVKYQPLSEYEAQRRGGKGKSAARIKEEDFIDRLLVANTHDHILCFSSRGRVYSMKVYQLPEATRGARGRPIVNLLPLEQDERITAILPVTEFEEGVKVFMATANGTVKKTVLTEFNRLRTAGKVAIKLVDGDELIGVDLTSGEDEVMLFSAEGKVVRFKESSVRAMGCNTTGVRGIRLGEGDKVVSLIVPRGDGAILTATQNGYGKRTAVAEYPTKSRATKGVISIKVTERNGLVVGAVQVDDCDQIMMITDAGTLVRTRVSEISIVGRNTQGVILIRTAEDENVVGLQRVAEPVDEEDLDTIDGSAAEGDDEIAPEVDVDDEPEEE

SMILES | Cumulative % of strains inhibited at MIC ([1]; MIC 0.125 µg/mL) | No. of strains inhibited at MIC ([1]; MIC 0.125 µg/mL) | Cumulative % of strains inhibited at MIC ([1]; MIC 2 µg/mL) | No. of strains inhibited at MIC ([1]; MIC 2 µg/mL) | Cumulative % of strains inhibited at MIC ([1]; MIC ≤[…]) | No. of strains inhibited at MIC ([1]; MIC ≤[…]) | MIC50 [1] | MIC90 [1] | MIC [1] | MIC [2] | MIC (VRE (13B330)) | IC50 [3] | Cumulative % of strains inhibited at MIC ([4]; MIC 0.125 µg/mL) | MIC50 [4] | MIC90 [4] | MIC [4] | MIC50 [5] | MIC90 [5] | MIC [5] | MIC (MRSE) | other results
C[C@H]1CCc2c(N3CCC(O)(COc4ccc(N5C[C@H](CO)OC5=O)cc4F)CC3)c(F)cc3c(=O)c(C(=O)O)cn1c23 [OBP-4] | 77.8% | 2 | 100% | 1 | 55.6% | 5 | ≤ 0.0625 µg/mL | 0.25 µg/mL (≈ 0.417 µM) | 0.0625 to 2 µg/mL (≈ 0.104 to 3.34 µM) | 0.25 µg/mL (≈ 0.417 µM) | 0.25 µg/mL (≈ 0.417 µM) | 5 µM | 93.8% | 0.125 µg/mL (≈ 0.208 µM) | 0.125 µg/mL (≈ 0.208 µM) | 0.0625 to 0.5 µg/mL (≈ 0.104 to 0.834 µM) | 0.125 µg/mL (≈ 0.208 µM) | 0.25 µg/mL (≈ 0.417 µM) | 0.0625 to 0.25 µg/mL (≈ 0.104 to 0.417 µM) | ≤ 0.0625 µg/mL | Cumulative % of strains inhibited at MIC ([1]; MIC […]): 88.9%; No. of strains inhibited at MIC ([1]; MIC […]): 1; No. of strains inhibited at MIC ([4]; MIC 0.125 µg/mL): 16; Cumulative % of strains inhibited at MIC ([4]; MIC 0.5 µg/mL): 100.0%; No. of strains inhibited at MIC ([4]; MIC 0.5 µg/mL): 2; Cumulative % of strains inhibited at MIC ([4]; MIC ≤[…]): 43.8%; No. of strains inhibited at MIC ([4]; MIC ≤[…]): 14; IC50 (E. coli DNA gyrase): 1 to 5 µM; Cumulative % of strains inhibited at MIC ([5]; MIC 0.125 µg/mL): 60.0%; No. of strains inhibited at MIC ([5]; MIC 0.125 µg/mL): 4; Cumulative % of strains inhibited at MIC ([5]; MIC […]): 100.0%; No. of strains inhibited at MIC ([5]; MIC […]): 4; Cumulative % of strains inhibited at MIC ([5]; MIC ≤[…]): 20.0%; No. of strains inhibited at MIC ([5]; MIC ≤[…]): 2
CC(=O)NC[C@H]1CN(c2ccc(N3CCOCC3)c(F)c2)C(=O)O1 [LZD, linezolid, reference compound] | – | – | – | – | – | – | 0.5 µg/mL (≈ 1.48 µM) | 4 µg/mL (≈ 11.9 µM) | 0.5 to 4 µg/mL (≈ 1.48 to 11.9 µM) | 0.5 µg/mL (≈ 1.48 µM) | 2 µg/mL (≈ 5.93 µM) | 5 µM | – | 0.5 µg/mL (≈ 1.48 µM) | 2 µg/mL (≈ 5.93 µM) | 0.125 to 8 µg/mL (≈ 0.371 to 23.7 µM) | 1 µg/mL (≈ 2.96 µM) | 1 µg/mL (≈ 2.96 µM) | 0.5 to 1 µg/mL (≈ 1.48 to 2.96 µM) | 0.25 µg/mL (≈ 0.741 µM) | CLSI %R (resistant) [4, 6]: 3.8%; CLSI %S (susceptible) [4, 6]: 96.2%; CLSI %S (susceptible) ([5]; S. epidermidis clinical isolates, CLSI criteria): 100.0/- %
CC1Sc2c(C(=O)O)c(=O)c3cc(F)c(N4CCC(O)(COc5ccc(N6C[C@H](CO)OC6=O)cc5F)CC4)cc3n21 (some centres unmarked) [OBP-5] | 88.9% | 3 | 100% | 1 | 55.6% | 5 | ≤ 0.0625 µg/mL | 0.125 µg/mL (≈ 0.207 µM) | 0.0625 to 2 µg/mL (≈ 0.104 to 3.31 µM) | ≤ 0.0625 µg/mL | 0.5 µg/mL (≈ 0.828 µM) | 2 µM | 100.0% | ≤ 0.0625 µg/mL | ≤ 0.0625 µg/mL | 0.0625 to 0.125 µg/mL (≈ 0.104 to 0.207 µM) | ≤ 0.0625 µg/mL | 0.125 µg/mL (≈ 0.207 µM) | 0.0625 to 0.125 µg/mL (≈ 0.104 to 0.207 µM) | ≤ 0.0625 µg/mL | protein synthesis inhibition, fold greater than LZD ([3]; relative to IC50 of LZD): 2.5 fold; No. of strains inhibited at MIC ([4]; MIC 0.125 µg/mL): 2; No. of strains inhibited at MIC ([4]; MIC ≤[…]): 30; IC50 (E. coli DNA gyrase): 20 µM; No. of strains inhibited at MIC ([5]; MIC 0.125 µg/mL): 2; Cumulative % of strains inhibited at MIC ([5]; MIC ≤[…]): 80.0%; No. of strains inhibited at MIC ([5]; MIC ≤[…]): 8
